Laboratory results published in PubChem BioAssay AID220 (DTP/NCI, 2004).
Values joined by “and” are separate entries in the source; they are usually repeats but may differ in a detail not shown here. Equal entries are not always repeated. Results filed as inconclusive are left out.

Test system: CD8F1 mice, subcutaneous mammary adenocarcinoma, T/C%
Test: NCI In Vivo Anticancer Drug Screen. Data for tumor model Mammary Adenocarcinoma CD8F1 (subcutaneous) in CD8F1
Settings: higher = larger tumour
How it was run: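 Ratio of treated to vehicle-control outcome, based on either survival or tumor size, in mice bearing transplantable tumors given the test compound.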

[1] = endpoint: median tumor weight (est.), dose: 25.0 mg/kg/injection, schedule: Q07DX005 (ip), vehicle: saline
[2] = endpoint: median tumor weight (est.), dose: 100.0 mg/kg/injection, schedule: Q07DX005 (ip), vehicle: saline
[3] = endpoint: median tumor weight (est.), dose: 200.0 mg/kg/injection, schedule: Q07DX005 (ip), vehicle: saline
[4] = endpoint: median tumor weight change, dose: 62.5 mg/kg/injection, schedule: Q01DX001 (ip), vehicle: saline with Tween-80
[5] = endpoint: median tumor weight (est.), dose: 6.25 mg/kg/injection, schedule: Q07DX005 (ip), vehicle: saline
[6] = endpoint: median tumor weight (est.), dose: 50.0 mg/kg/injection, schedule: Q07DX005 (ip), vehicle: saline

## C[N+](C)(C)c1ncnc2nc[nH]c12
[1]
  T/C: 194 % of control
[2]
  T/C: 259 % of control
[3]
  T/C: 186 % of control

## COc1cc2c(c(OC)c1O)-c1ccc(OC)c(=O)cc1[C@@H](NC(=O)C(F)(F)F)CC2
endpoint: median tumor weight change, dose: 3.12 mg/kg/injection, schedule: Q01DX001 (ip), vehicle: Klucel (hydroxypropylcellulose) (HPC)
  T/C: 100 % of control
endpoint: median tumor weight change, dose: 6.25 mg/kg/injection, schedule: Q01DX001 (ip), vehicle: Klucel (hydroxypropylcellulose) (HPC)
  T/C: 203 % of control
endpoint: median tumor weight change, dose: 12.5 mg/kg/injection, schedule: Q01DX001 (ip), vehicle: Klucel (hydroxypropylcellulose) (HPC)
  T/C: 74 % of control
endpoint: median tumor weight change, dose: 25.0 mg/kg/injection, schedule: Q01DX001 (ip), vehicle: Klucel (hydroxypropylcellulose) (HPC)
  T/C: 168 % of control
endpoint: median tumor weight change, dose: 50.0 mg/kg/injection, schedule: Q01DX001 (ip), vehicle: Klucel (hydroxypropylcellulose) (HPC)
  T/C: 21 % of control

## CS(=O)(=O)Nc1ccc(C(=O)CCN2CCCCCC2)cc1
endpoint: median tumor weight change, dose: 125.0 mg/kg/injection, schedule: Q01DX001 (ip), vehicle: suspension in saline
  T/C: 157 % of control
endpoint: median tumor weight change, dose: 250.0 mg/kg/injection, schedule: Q01DX001 (ip), vehicle: suspension in saline
  T/C: 166 % of control
endpoint: median tumor weight change, dose: 500.0 mg/kg/injection, schedule: Q01DX001 (ip), vehicle: suspension in saline
  T/C: 92 % of control

## O=c1n(CC2CO2)c(=O)n(CC2CO2)n1CC1CO1 (centres undefined)
endpoint: median tumor weight change, dose: 62.5 mg/kg/injection, schedule: Q01DX001 (ip), vehicle: saline
  T/C: 29 % of control

## COC1(OC)C2C=CC1CC2
[4]
  T/C: 94 % of control
endpoint: median tumor weight change, dose: 125.0 mg/kg/injection, schedule: Q01DX001 (ip), vehicle: saline with Tween-80
  T/C: 82 % of control
endpoint: median tumor weight change, dose: 250.0 mg/kg/injection, schedule: Q01DX001 (ip), vehicle: saline with Tween-80
  T/C: 107 % of control
endpoint: median tumor weight change, dose: 500.0 mg/kg/injection, schedule: Q01DX001 (ip), vehicle: saline with Tween-80
  T/C: 58 % of control

## CC[N+](CC)(CC)CC
endpoint: median tumor weight (est.), dose: 0.78 mg/kg/injection, schedule: Q07DX005 (ip), vehicle: saline with Tween-80
  T/C: 96 % of control
endpoint: median tumor weight (est.), dose: 1.56 mg/kg/injection, schedule: Q07DX005 (ip), vehicle: saline with Tween-80
  T/C: 71 % of control and 84 % of control
endpoint: median tumor weight (est.), dose: 3.12 mg/kg/injection, schedule: Q07DX005 (ip), vehicle: saline with Tween-80
  T/C: 21 % of control and 38 % of control
endpoint: median tumor weight (est.), dose: 6.25 mg/kg/injection, schedule: Q07DX005 (ip), vehicle: saline with Tween-80
  T/C: 10 % of control and 27 % of control
endpoint: median tumor weight change, dose: 5.0 mg/kg/injection, schedule: Q01DX001 (ip), vehicle: saline with Tween-80
  T/C: 38 % of control
endpoint: median tumor weight change, dose: 10.0 mg/kg/injection, schedule: Q01DX001 (ip), vehicle: saline with Tween-80
  T/C: 20 % of control
endpoint: median tumor weight change, dose: 12.0 mg/kg/injection, schedule: Q01DX001 (ip), vehicle: saline with Tween-80
  T/C: 54 % of control and 61 % of control
endpoint: median tumor weight change, dose: 15.0 mg/kg/injection, schedule: Q01DX001 (ip), vehicle: saline with Tween-80
  T/C: 86 % of control
endpoint: median tumor weight change, dose: 20.0 mg/kg/injection, schedule: Q01DX001 (ip), vehicle: saline with Tween-80
  T/C: 22 % of control
endpoint: median tumor weight change, dose: 30.0 mg/kg/injection, schedule: Q01DX001 (ip), vehicle: saline with Tween-80
  T/C: 15 % of control
endpoint: median tumor weight change, dose: 40.0 mg/kg/injection, schedule: Q01DX001 (ip), vehicle: saline with Tween-80
  T/C: 8 % of control

## O=Cc1ccc(C=O)c(Cl)c1
endpoint: median tumor weight change, dose: 125.0 mg/kg/injection, schedule: Q01DX001 (ip), vehicle: Klucel (hydroxypropylcellulose) (HPC)
  T/C: 104 % of control
endpoint: median tumor weight change, dose: 250.0 mg/kg/injection, schedule: Q01DX001 (ip), vehicle: Klucel (hydroxypropylcellulose) (HPC)
  T/C: 99 % of control
endpoint: median tumor weight change, dose: 500.0 mg/kg/injection, schedule: Q01DX001 (ip), vehicle: Klucel (hydroxypropylcellulose) (HPC)
  T/C: 79 % of control
endpoint: median tumor weight change, dose: 1000.0 mg/kg/injection, schedule: Q01DX001 (ip), vehicle: Klucel (hydroxypropylcellulose) (HPC)
  T/C: 117 % of control
endpoint: median tumor weight change, dose: 2000.0 mg/kg/injection, schedule: Q01DX001 (ip), vehicle: Klucel (hydroxypropylcellulose) (HPC)
  T/C: 67 % of control

## O=c1[nH]c2c(ccc3cnccc32)c2c1CCC2
[5]
  T/C: 119 % of control
endpoint: median tumor weight (est.), dose: 12.5 mg/kg/injection, schedule: Q07DX005 (ip), vehicle: suspension in saline
  T/C: 80 % of control
[1]
  T/C: 162 % of control
endpoint: median tumor weight (est.), dose: 25.0 mg/kg/injection, schedule: Q07DX005 (ip), vehicle: suspension in saline
  T/C: 80 % of control
[6]
  T/C: 114 % of control
endpoint: median tumor weight (est.), dose: 50.0 mg/kg/injection, schedule: Q07DX005 (ip), vehicle: suspension in saline
  T/C: 59 % of control
[2]
  T/C: 164 % of control
endpoint: median tumor weight (est.), dose: 100.0 mg/kg/injection, schedule: Q07DX005 (ip), vehicle: suspension in saline
  T/C: 77 % of control

## COc1cc2c(cc1O)N=C[C@@H]1CCC(O)N1C2=O (mixture of isomers)
endpoint: median tumor weight (est.), dose: 2.0 mg/kg/injection, schedule: Q07DX005 (ip), vehicle: saline
  T/C: 103 % of control
endpoint: median tumor weight (est.), dose: 4.0 mg/kg/injection, schedule: Q07DX005 (ip), vehicle: saline
  T/C: 79 % of control
endpoint: median tumor weight (est.), dose: 8.0 mg/kg/injection, schedule: Q07DX005 (ip), vehicle: saline
  T/C: 160 % of control

## c1ccc(SSc2ccccn2)nc1
endpoint: mean tumor weight, dose: 25.0 mg/kg/injection, schedule: Q07DX006 (ip), vehicle: saline
  T/C: 123 % of control
endpoint: mean tumor weight, dose: 100.0 mg/kg/injection, schedule: Q07DX006 (ip), vehicle: saline
  T/C: 159 % of control

## ClCC[N+]12CC[N+](CCCl)(CC1)C2
endpoint: mean tumor weight, dose: 12.5 mg/kg/injection, schedule: Q07DX006 (ip), vehicle: water
  T/C: 16 % of control
endpoint: mean tumor weight, dose: 25.0 mg/kg/injection, schedule: Q07DX006 (ip), vehicle: water
  T/C: 85 % of control
endpoint: mean tumor weight, dose: 50.0 mg/kg/injection, schedule: Q07DX006 (ip), vehicle: water
  T/C: 72 % of control
endpoint: mean tumor weight, dose: 100.0 mg/kg/injection, schedule: Q07DX006 (ip), vehicle: water
  T/C: 18 % of control
endpoint: mean tumor weight, dose: 200.0 mg/kg/injection, schedule: Q07DX006 (ip), vehicle: water
  T/C: 3 % of control
endpoint: median tumor weight (est.), dose: 12.5 mg/kg/injection, schedule: Q07DX005 (ip), vehicle: water
  T/C: 70 % of control
endpoint: median tumor weight (est.), dose: 25.0 mg/kg/injection, schedule: Q07DX005 (ip), vehicle: water
  T/C: 54 % of control
[6]
  T/C: 68 % of control and 50 % of control
endpoint: median tumor weight (est.), dose: 50.0 mg/kg/injection, schedule: Q07DX005 (ip), vehicle: water
  T/C: 49 % of control
endpoint: median tumor weight (est.), dose: 100.0 mg/kg/injection, schedule: Q07DX005 (ip), vehicle: water
  T/C: 32 % of control
[3]
  T/C: 20 % of control
endpoint: median tumor weight (est.), dose: 400.0 mg/kg/injection, schedule: Q07DX005 (ip), vehicle: saline
  T/C: 6 % of control

## CC[N](CC)[Ge]([CH2]C)[CH2]C.CC[N](CC)[Ge]([CH2]C)[CH2]C
[5]
  T/C: 116 % of control
endpoint: median tumor weight (est.), dose: 12.5 mg/kg/injection, schedule: Q07DX005 (ip), vehicle: saline
  T/C: 74 % of control
[1]
  T/C: 124 % of control
[6]
  T/C: 94 % of control

## CCC1(O)CC2CN(CCc3c([nH]c4ccccc34)C(C(=O)OC)(c3cc4c(cc3OC)N(C)C3C(O)(C(=O)NCCSSCCNC(=O)C5(O)C(O)C6(CC)C=CCN7CCC8(c9cc(C%10(C(=O)OC)CC%11CN(CCc%12c%10[nH]c%10ccccc%12%10)CC(O)(CC)C%11)c(OC)cc9N(C)C58)C76)C(O)C5(CC)C=CCN6CCC43C65)C2)C1 (centres undefined)
endpoint: median tumor weight change, dose: 1.9 mg/kg/injection, schedule: Q01DX001 (ip), vehicle: saline
  T/C: 45 % of control

## CN=C(N)N/N=C(\c1ccccc1)c1ccc(Br)cc1
endpoint: median tumor weight change, dose: 15.6 mg/kg/injection, schedule: Q01DX001 (ip), vehicle: saline with Tween-80
  T/C: 71 % of control
endpoint: median tumor weight change, dose: 31.25 mg/kg/injection, schedule: Q01DX001 (ip), vehicle: saline with Tween-80
  T/C: 56 % of control
[4]
  T/C: 55 % of control

## C=C1C(=O)OCC2C(C(=O)O)=CC3C(C)C(C)=CC123 (centres undefined)
endpoint: median tumor weight (est.), dose: 10.0 mg/kg/injection, schedule: Q07DX005 (ip), vehicle: Klucel (hydroxypropylcellulose) (HPC)
  T/C: 101 % of control
endpoint: median tumor weight (est.), dose: 20.0 mg/kg/injection, schedule: Q07DX005 (ip), vehicle: Klucel (hydroxypropylcellulose) (HPC)
  T/C: 95 % of control and 105 % of control
endpoint: median tumor weight (est.), dose: 40.0 mg/kg/injection, schedule: Q07DX005 (ip), vehicle: Klucel (hydroxypropylcellulose) (HPC)
  T/C: 100 % of control and 114 % of control
endpoint: median tumor weight (est.), dose: 80.0 mg/kg/injection, schedule: Q07DX005 (ip), vehicle: Klucel (hydroxypropylcellulose) (HPC)
  T/C: 75 % of control and 85 % of control
endpoint: median tumor weight (est.), dose: 160.0 mg/kg/injection, schedule: Q07DX005 (ip), vehicle: Klucel (hydroxypropylcellulose) (HPC)
  T/C: 101 % of control

## C[C@]12C=CC(=O)C=C1CC[C@@H]1[C@@H]2[C@@H](O)C[C@@]2(C)[C@H]1CC[C@]2(O)C(=O)CO
endpoint: median tumor weight change, dose: 100.0 mg/kg/injection, schedule: Q01DX001 (ip), vehicle: Klucel (hydroxypropylcellulose) (HPC)
  T/C: 111 % of control
endpoint: median tumor weight change, dose: 200.0 mg/kg/injection, schedule: Q01DX001 (ip), vehicle: Klucel (hydroxypropylcellulose) (HPC)
  T/C: 67 % of control and 87 % of control and 90 % of control
endpoint: median tumor weight change, dose: 800.0 mg/kg/injection, schedule: Q01DX001 (ip), vehicle: Klucel (hydroxypropylcellulose) (HPC)
  T/C: 32 % of control and 38 % of control and 52 % of control
endpoint: median tumor weight change, dose: 1600.0 mg/kg/injection, schedule: Q01DX001 (ip), vehicle: Klucel (hydroxypropylcellulose) (HPC)
  T/C: 14 % of control
